Measured values published in publication PMC10573254, “Development of Novel Class of Phenylpyrazolo[3,4-d]pyrimidine-Based Analogs with Potent Anticancer Activity and Multitarget Enzyme Inhibition Supported by Docking Studies” (International Journal of Molecular Sciences, 2023).
Where two headings read alike, the source gives them in different places.

Legend:
[1] = tested on: MCF-7; assay: MTT cytotoxicity assay, MCF-7; type: cell-based; details: Homo sapiens, MCF7; MTT, breast cancer cells; read-out: IC50 MCF-7
Description: (§2) The cytotoxic activity was assessed using the 3-(4,5-dimethylthiazol-2-yl)-2,5-diphenyl tetrazolium bromide (MTT) colorimetric assay, as reported previously [62, 63]. […] Briefly, the designated cell lines were cultured at a concentration of 5 × 10^4 cell/well in 96-well plates. The cells were incubated for 24 h under optimum conditions. Following this, the designated molecules were introduced (in serial dilutions from 0 to 50 μg/mL), and the cells were incubated for an additional 24 h. Following this, the media were withdrawn, and 100 μL of fresh medium was added. Then, 10 µL of the 12 mM MTT stock solution was administered to each well. The plates were then incubated for 4 h. Then, the cells were exposed to different compounds at the desired concentrations (0.01, 0.1, 1, 10, and 100 µM) or to 1% dimethyl sulfoxide (DMSO) for 48 and 72 h. […] Then, the optical density was measured at 590 nm with the microplate reader (Sunrise, TECAN, Inc., Morrisville, NC, USA).

[2] = tested on: HCT-116; assay: MTT cytotoxicity assay, HCT-116; type: cell-based; details: Homo sapiens, HCT-116, read-out: IC50 HCT-116; MTT, colon cancer cells
Description: as §2

[3] = tested on: HePG-2; assay: MTT cytotoxicity assay, HePG-2; type: cell-based; details: Homo sapiens, HepG2
Description: (§1) The cytotoxic activity was assessed using the 3-(4,5-dimethylthiazol-2-yl)-2,5-diphenyl tetrazolium bromide (MTT) colorimetric assay, as reported previously. Doxorubicin was used as a reference standard, and DMSO was used as a negative control. Briefly, the designated cell lines were cultured at a concentration of 5 × 10^4 cell/well in 96-well plates. The cells were incubated for 24 h under optimum conditions. Following this, the designated molecules were introduced (in serial dilutions from 0 to 50 μg/mL), and the cells were incubated for an additional 24 h. Following this, the media were withdrawn, and 100 μL of fresh medium was added. Then, 10 µL of the 12 mM MTT stock solution was administered to each well. The plates were then incubated for 4 h. […] An 85-μL aliquot of the media was removed from the wells, and 50 µL of DMSO was added to each well and mixed thoroughly with the pipette and incubated at 37 °C for 10 min. Then, the optical density was measured at 590 nm with the microplate reader (Sunrise, TECAN, Inc., Morrisville, NC, USA).

[4] = target: T1, Topo-II (Homo sapiens, UniProt Q02880); assay: In vitro Topo II inhibitory assay; type: biochemical
T1 construct: purchased
T1 sequence (Q02880 2-1626): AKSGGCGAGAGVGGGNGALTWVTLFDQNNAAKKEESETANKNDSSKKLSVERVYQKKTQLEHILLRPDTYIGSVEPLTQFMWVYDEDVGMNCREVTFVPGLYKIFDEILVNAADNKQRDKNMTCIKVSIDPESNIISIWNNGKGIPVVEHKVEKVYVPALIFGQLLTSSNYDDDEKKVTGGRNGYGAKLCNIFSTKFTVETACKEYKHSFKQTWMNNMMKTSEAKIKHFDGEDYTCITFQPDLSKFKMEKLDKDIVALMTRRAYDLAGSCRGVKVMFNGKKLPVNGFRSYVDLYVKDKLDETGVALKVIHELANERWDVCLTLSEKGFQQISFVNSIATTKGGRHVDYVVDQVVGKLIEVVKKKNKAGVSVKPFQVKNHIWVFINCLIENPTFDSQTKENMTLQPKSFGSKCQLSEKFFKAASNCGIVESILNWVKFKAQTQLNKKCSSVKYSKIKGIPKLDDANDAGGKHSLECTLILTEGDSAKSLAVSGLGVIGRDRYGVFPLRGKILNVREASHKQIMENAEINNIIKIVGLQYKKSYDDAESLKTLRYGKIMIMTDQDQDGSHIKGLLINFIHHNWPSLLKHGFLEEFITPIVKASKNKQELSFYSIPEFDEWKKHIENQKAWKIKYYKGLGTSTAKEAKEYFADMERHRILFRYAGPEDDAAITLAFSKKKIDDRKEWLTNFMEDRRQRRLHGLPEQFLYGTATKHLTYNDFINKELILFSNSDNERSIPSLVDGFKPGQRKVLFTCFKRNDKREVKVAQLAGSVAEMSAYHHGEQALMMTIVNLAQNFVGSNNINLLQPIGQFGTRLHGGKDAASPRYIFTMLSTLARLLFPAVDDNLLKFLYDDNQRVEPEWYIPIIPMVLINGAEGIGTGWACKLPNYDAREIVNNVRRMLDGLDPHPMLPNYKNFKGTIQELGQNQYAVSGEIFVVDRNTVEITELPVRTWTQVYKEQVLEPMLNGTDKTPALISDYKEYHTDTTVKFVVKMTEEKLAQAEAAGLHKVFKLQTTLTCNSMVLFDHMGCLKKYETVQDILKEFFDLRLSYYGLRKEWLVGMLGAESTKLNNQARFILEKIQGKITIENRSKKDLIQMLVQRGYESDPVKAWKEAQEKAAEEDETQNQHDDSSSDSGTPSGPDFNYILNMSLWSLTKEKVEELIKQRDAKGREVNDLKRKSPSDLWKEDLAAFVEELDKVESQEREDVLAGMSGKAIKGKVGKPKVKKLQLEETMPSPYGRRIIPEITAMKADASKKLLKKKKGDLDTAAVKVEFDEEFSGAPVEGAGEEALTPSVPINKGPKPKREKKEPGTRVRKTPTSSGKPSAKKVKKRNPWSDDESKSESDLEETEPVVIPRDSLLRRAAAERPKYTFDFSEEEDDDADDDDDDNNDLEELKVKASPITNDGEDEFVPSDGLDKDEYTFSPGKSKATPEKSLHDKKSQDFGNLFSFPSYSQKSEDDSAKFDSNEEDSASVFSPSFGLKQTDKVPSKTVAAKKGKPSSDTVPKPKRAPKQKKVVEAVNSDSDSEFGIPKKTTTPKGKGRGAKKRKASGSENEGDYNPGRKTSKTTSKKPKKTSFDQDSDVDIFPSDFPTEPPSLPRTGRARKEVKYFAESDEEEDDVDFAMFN
Description: Curve fitting was performed using GraphPad Prism.
(1 picture or pasted object on this page, not shown here)

[5] = tested on: WI-38; assay: MTT assay on normal cell line WI-38; type: cell-based; details: Homo sapiens, WI-38, MTT, normal human diploid fibroblasts
Description: According to our design, the tested compounds are classified into four categories based on the length and the chemotype of the spacer (Figure 3). In the first category, we used monosubstituted hydrazone linker. […] The second category is represented by […] hydrazone linker.
as §1

[6] = MTT, liver cancer cells, read-out: IC50 HePG-2

Compound	melting point [°C]	IC50 [1] [µM]	IC50 [2] [µM]	IC50 [3, 6] [µM]	also measured
CCCNC(=S)NNc1nc(C)nc2c1cnn2-c1ccccc1 [Compound 9b, 2-(6-Methyl-1-phenyl-1H-pyrazolo[3,4-d]pyrimidin-4-yl)-N-propylhydrazinecarbothioamide]		34.2 ± 2	17.6 ± 1.3	23.9 ± 1.8	
Cc1nc(NN=Cc2ccccc2)c2cnn(-c3ccccc3)c2n1 [Compound 5a, 4-(2-Benzylidenehydrazinyl)-6-methyl-1-phenyl-1H-pyrazolo[3,4-d]pyrimidine]	160 to 162	21.1 ± 1.5	11.7 ± 0.9	15.1 ± 1.2	
COc1cc([C@@H]2c3cc4c(cc3[C@@H](O[C@@H]3O[C@@H]5CO[C@@H](C)O[C@H]5[C@H](O)[C@H]3O)[C@H]3COC(=O)[C@H]23)OCO4)cc(OC)c1O [Etoposide, reference compound]					TOPO IiB %inh at conc 12.5 ([4]; conc 12.5, unit not given): 7.5%; TOPO IiB %inh at conc 25 ([4]; conc 25, unit not given): 20%; TOPO IiB %inh at conc 50 ([4]; conc 50, unit not given): 39%; TOPO IiB %inh at conc 100 ([4]; conc 100, unit not given): 69%
COc1ccc(C(C)=NNc2nc(C)nc3c2cnn3-c2ccccc2)cc1 [Compound 5k, 4-(2-(1-(4-Methoxyphenyl)ethylidene)hydrazinyl)-6-methyl-1-phenyl-1H-pyrazolo[3,4-d]pyrimidine]	235 to 237	88.3 ± 4.7	78 ± 4.2	91.6 ± 5.1	
Cc1nc(NN=Cc2ccc([N+](=O)[O-])cc2)c2cnn(-c3ccccc3)c2n1 [Compound 5f, 6-Methyl-4-(2-(4-nitrobenzylidene)hydrazineyl)-1-phenyl-1H-pyrazolo[3,4-d]pyrimidine]	250 to 252	> 100	89.7 ± 4.8	> 100	
CC(=NNc1nc(C)nc2c1cnn2-c1ccccc1)c1ccc(Cl)cc1Br [Compound 5l, 4-(2-(1-(2-Bromo-4-chlorophenyl)ethylidene)hydrazineyl)-6-methyl-1-phenyl-1H-pyrazolo[3,4-d] pyrimidine]	257 to 259	29.2 ± 1.8	14.6 ± 1.1	17.1 ± 1.3	
Cc1nc(NN=CC=Cc2ccccc2)c2cnn(-c3ccccc3)c2n1 [Compound 5h, 6-Methyl-1-phenyl-4-(2-(-3-phenylallylidene)hydrazineyl)-1H-pyrazolo[3,4-d]pyrimidine]	241 to 243	> 100	76.8 ± 4.1	> 100	
Cc1nc(NN2C(=O)C=CC2=O)c2cnn(-c3ccccc3)c2n1 [Compound 8, 1-((6-Methyl-1-phenyl-1H-pyrazolo[3,4-d]pyrimidin-4-yl)amino)-1H-pyrrole-2,5-dione]		79.5 ± 4.4	66.3 ± 3.5	78.5 ± 4.3	
Cc1nc(NN=Cc2c(Cl)cccc2Cl)c2cnn(-c3ccccc3)c2n1 [Compound 5g, 4-(2-(2,6-Dichlorobenzylidene)hydrazineyl)-6-methyl-1-phenyl-1H-pyrazolo[3,4-d]pyrimidine]	255 to 257	> 100	> 100	> 100	
Cc1nc(NN=Cc2ccc(Cl)cc2)c2cnn(-c3ccccc3)c2n1 [Compound 5c, 4-(2-(4-Chlorobenzylidene)hydrazinyl)-6-methyl-1-phenyl-1H-pyrazolo[3,4-d]pyrimidine]	233 to 235	66.6 ± 3.8	39.5 ± 2.6	83.7 ± 4.4	
Cc1nc(NN2C(=O)CCC2=O)c2cnn(-c3ccccc3)c2n1 [Compound 7, 1-((6-Methyl-1-phenyl-1H-pyrazolo[3,4-d]pyrimidin-4-yl)amino)pyrrolidine-2,5-dione]	280 to 282	81 ± 4.6	73.5 ± 3.8	87.2 ± 4.5	
COc1ccc(C=NNc2nc(C)nc3c2cnn3-c2ccccc2)cc1 [Compound 5d]	227 to 229	19.4 ± 1.3	9.87 ± 0.7	18.3 ± 1.5	
COc1cccc2c1C(=O)c1c(O)c3c(c(O)c1C2=O)C[C@@](O)(C(=O)CO)C[C@@H]3O[C@H]1C[C@H](N)[C@H](O)[C@H](C)O1 [DOX, Doxorubicin, reference compound]				4.5 ± 0.2	IC50 [5]: 10.6 ± 0.47 µM; IC50 ([3]; 24 h incubation, read-out: IC50 HePG-2 24 h): 4.5 ± 0.2 µM; IC50 ([3]; 48 h incubation, read-out: IC50 HePG-2 48 h): 3.24 ± 0.2 µM; IC50 ([3]; 72 h incubation, read-out: IC50 HePG-2 72 h): 1.07 ± 0.1 µM
CC(=NNc1nc(C)nc2c1cnn2-c1ccccc1)c1ccc(N)cc1 [Compound 5j, 4-(1-(2-(6-Methyl-1-phenyl-1H-pyrazolo[3,4-d]pyrimidin-4-yl)hydrazineylidene)ethyl)aniline]	221 to 223	36 ± 2.4	21.5 ± 1.5	44.3 ± 2.9	
COc1ccccc1C=NNc1nc(C)nc2c1cnn2-c1ccccc1 [Compound 5e, 4-(2-(2-Methoxybenzylidene)hydrazineyl)-6-methyl-1-phenyl-1H-pyrazolo[3,4-d]pyrimidine]	220 to 222	16.1 ± 1.1	8.15 ± 0.5	13.8 ± 1	

Now from value to compound, other results behind:

melting point [°C]	Compound	IC50 [1] [µM]	IC50 [2] [µM]	IC50 [3, 6] [µM]	also measured
267 to 269	Cc1nc2c(cnn2-c2ccccc2)c2nnc(C(F)(F)F)n12 [Compound 6b, 5-Methyl-7-phenyl-3-(trifluoromethyl)-7H-pyrazolo[4,3-e][1,2,4]triazolo[4,3-c]pyrimidine]	39.1 ± 2.5	26.1 ± 1.8	25.2 ± 2	
250 to 252	Cc1nc2c(cnn2-c2ccccc2)c2nnc(C(Cl)(Cl)Cl)n12 [Compound 6c, 5-Methyl-7-phenyl-3-(trichloromethyl)-7H-pyrazolo[4,3-e][1,2,4]triazolo[4,3-c]pyrimidine]	54.2 ± 3.4	37.2 ± 2.4	56.2 ± 3.5	
240 to 242	CC(=O)CC(C)=Nc1nc(C)nc2c1cnn2-c1ccccc1 [Compound 6d, 4-((6-Methyl-1-phenyl-1H-pyrazolo[3,4-d]pyrimidin-4-yl)imino)pentan-2-one]	84.6 ± 4.6	93.4 ± 5.2	89.2 ± 4.7	
278 to 280	CCNC(=S)NNc1nc(C)nc2c1cnn2-c1ccccc1 [Compound 9a, N-Ethyl-2-(6-methyl-1-phenyl-1H-pyrazolo[3,4-d]pyrimidin-4-yl)hydrazinecarbothioamide]	7.61 ± 0.4	2.96 ± 0.1	5.97 ± 0.3	
250 to 252	Cc1nc2c(cnn2-c2ccccc2)c2nncn12 [Compound 6a, 5-Methyl-7-phenyl-7H-pyrazolo[4,3-e][1,2,4]triazolo[4,3-c]pyrimidine]	49.6 ± 3.1	34.6 ± 2.2	37.5 ± 2.7	
268 to 270	C=CNC(=S)NNc1nc(C)nc2c1cnn2-c1ccccc1 [Compound 9d, 2-(6-Methyl-1-phenyl-1H-pyrazolo[3,4-d]pyrimidin-4-yl)-N-vinylhydrazine-1-carbothioamide]	35.2 ± 2.2	19.7 ± 1.4	32.6 ± 2.4	
270 to 272	CCCCNC(=S)NNc1nc(C)nc2c1cnn2-c1ccccc1 [Compound 9c, N-Butyl-2-(6-methyl-1-phenyl-1H-pyrazolo[3,4-d]pyrimidin-4-yl)hydrazinecarbothioamide]	31.4 ± 1.9	16.6 ± 1.2	20.3 ± 1.6	
